Measured values reported in publication PMC7320011, “Rationally designed ruthenium complexes for 1- and 2-photon photodynamic therapy” (Nature Communications, 2020).
Values joined by “and” are separate entries in the source; they are usually repeats but may differ in a detail not shown here. Equal entries are not always repeated. Where two headings read alike, the source gives them in different places.

Tests used:
[1] = Two-photon absorption cross section; format: physicochemical; conditions: dichloromethane
Description: The two-photon absorption cross section spectra of the sample was determined upon direction comparison to Rhodamine B. The sample was irradiated with an OpoletteTM 355II (pulse width ≤ 100 fs, 80 MHz repetition rate, Spectra Physics Inc.) laser. The experimental excitation and detection conditions were conducted with negligible reabsorption processes, which could affect two-photon absorption measurements. The quadratic dependence of the two-photon induced luminescence intensity on the excitation power was verified at an excitation wavelength of 800 nm. The two-photon absorption cross section was calculated using the following equation:1 σ2,sample=σ2,reference×Φreference×creference×Isample×nsample/Φsample×csample×Ireference×nreference,
σ2 = two-photon cross section, Φ = luminescence quantum yield, c = concentration, I = integrated luminescence intensity, n = refractive index

[2] = Emission and luminescence quantum yield; format: physicochemical; conditions: acetonitrile
Description: The absorption spectra of the sample was measured with a SpectraMax M2 Spectrometer (Molecular Devices). For the measurements of the emission, the sample was irradiated at 355 nm with a NT342B Nd-YAG pumped optical parametric oscillator (Ekspla). The emission was focused at right angle to the excitation pathway and directed to a Princeton Instruments Acton SP-2300i monochromator. The signal was detected with a XPI-Max 4 CCD camera (Princeton Instruments).
The sample was prepared in an acetonitrile solution with an absorption of 0.1 at 355 nm. The sample was irradiated at 355 nm with a NT342B Nd-YAG pumped optical parametric oscillator (Ekspla). The emission was focused at right angle to the excitation pathway and directed to a Princeton Instruments Acton SP-2300i monochromator. The signal was detected with a XPI-Max 4 CCD camera (Princeton Instruments). The luminescence quantum yields were determined by comparison with the reference [Ru(2,2′-bipyridine)3]Cl2 in acetonitrile (Φem = 5.9%)[58] applying the following formula:2 Φem,sample=Φem,reference×Freference/Fsample×Isample/Ireference×nsample/nreference^2, 3 F=1−10^-A. Φem = luminescence quantum yield, F = fraction of light absorbed, I = integrated emission intensities, n = refractive index, A = absorbance of the sample at irradiation wavelength.

Excited state lifetime = format: physicochemical; conditions: for τ air, excited state lifetime: air saturated acetonitrile; for τ degassed, excited state lifetime: degassed acetonitrile
Description: The sample was prepared in an air saturated as well as a degassed acetonitrile solution with an absorption of 0.2 at 355 nm. The sample was irradiated at 355 nm with a NT342B Nd-YAG pumped optical parametric oscillator (Ekspla). The emission was focused at right angle to the excitation pathway and directed to a Princeton Instruments Acton SP-2300i monochromator. The signal was detected with a R928 photomultiplier tube (Hamamatsu).

[3] = Singlet oxygen quantum yield, direct evaluation (1O2 phosphorescence); format: physicochemical
Description: Direct evaluation: the sample was prepared in an air-saturated acetonitrile or deuterated water solution with an absorption of 0.2 at 450 nm. The sample was irradiated at 450 nm with a mounted M450LP1 LED (Thorlabs), whose light was focused with aspheric condenser lenses. Using a T-Cube LED Driver (Thorlabs), the intensity of the irradiation was varied and monitored with an optical power and energy meter. The emission was focused at right angle to the excitation pathway and directed to a Princeton Instruments Acton SP-2300i monochromator. To cut off light at wavelengths shorter than 850 nm, a longpass glass filter was placed in front of the monochromator entrance slit. The signal was detected with an EO-817L IR-sensitive liquid-nitrogen cooled germanium diode detector (North Coast Scientific Corp.). The luminescence signal, centered at 1270 nm, was measured from 1100 to 1400 nm. The obtained data were analyzed upon plotting the integrated luminescence peaks against the percentage of the irradiation intensity. The slope of the linear regression was calculated and compared with the reference Rose Bengal (Φ = 76%)[59]. The absorption of the sample was corrected with an absorption correction factor. The singlet oxygen quantum yields were calculated using the following formula:4 Φsample=Φreference×Ssample/Sreference×Ireference/Isample, 5 I=I0×1−10^-A.
Φ = singlet oxygen quantum yield, S = slope of the linear regression of the plot of the areas of the singlet oxygen luminescence peaks against the irradiation intensity, I = absorption correction factor, I0 = light intensity of the irradiation source, and A = absorption of the sample at irradiation wavelength.

[4] = Singlet oxygen quantum yield, indirect evaluation (1O2 scavenger absorbance); format: physicochemical
Description: Indirect evaluation: measurement in acetonitrile: the sample was prepared in an air-saturated acetonitrile solution with an absorption of 0.2 at the irradiation wavelength, N,N-dimethyl-4-nitrosoaniline aniline (RNO, 24 µM) and imidazole (12 mM). Measurement in PBS buffer: the sample was prepared in an air-saturated PBS solution containing the complex with an absorption of 0.2 at the irradiation wavelength, N,N-dimethyl-4-nitrosoaniline aniline (RNO, 20 µM) and histidine (10 mM). The samples were irradiated for various time points with an Atlas Photonics LUMOS BIO irradiator. The absorption of the samples was constantly monitored with a SpectraMax M2 Microplate Reader (Molecular Devices). The difference in absorption (A0 − A) at 420 nm for the measurement in acetonitrile or at 440 nm for the measurement in PBS was determined. The difference in absorption was then plotted against the irradiation times and the slope of the linear regression calculated. The absorption of the sample was corrected with an absorption correction factor. The singlet oxygen quantum yields were calculated using the same formulas as used for the direct evaluation.

[5] = Distribution coefficient (shake-flask, octanol/PBS); format: physicochemical; conditions: ICP-MS
Description: Using the “shake-flask” method, the distribution coefficient between the PBS and octanol phase of the sample was determined. The PBS and octanol phases were previously saturated in each other. The sample was dissolved in the phase, which is dissolving best the compound. This solution was added to an equal volume of the other phase and mixed at 190 rpm overnight with a sample mixer. Following this, the solutions were equilibrated for 4 h. The phases were carefully separated from each other. The amount of the sample in each phase was determined by ICP-MS. The evaluation was repeated three times and the ratio between the organic and aqueous phase determined.

[6] = tested on: noncancerous retinal pigment epithelium (RPE-1) cells
[7] = tested on: mouse colon carcinoma (CT-26) cells
Description: (§1) A total of 4 × 10^3 cells were seeded on 96-well plates and allowed to adhere overnight. The cells were treated with increasing concentrations of the sample diluted in cell media achieving a total volume of 200 μL. The cells were incubated with the sample for 8 h and, after this time, the medium refreshed. To study the phototoxic effect of the sample, the cells were exposed to 480 nm (spectral half-width: 20 nm, 10 min, 5.2 mW cm^−2, 3.1 J cm^−2) or 540 nm (spectral half-width: 30 nm, 40 min, 4.0 mW cm^−2, 9.5 J cm^−2) light using an Atlas Photonics LUMOS BIO irradiator. To study the dark cytotoxicity of the sample, the cells were not irradiated and the medium exchanged. The cells were grown for an additional 40 h at 37 °C. After this time, the medium was replaced with fresh medium containing resazurin with a final concentration of 0.2 mg mL^−1. The cells were incubated for 4 h and the amount of the fluorescent product resorufin determined (λex = 540 nm, λem = 590 nm) with a SpectraMax M2 Microplate Reader (Molecular Devices). The obtained data was analyzed with the GraphPad Prism software.

[8] = tested on: human glioblastoma astrocytoma (U373) cells; assay: (Photo-)cytotoxicity on 2D cell monolayers, U373; conditions: for PI (480 nm): U373, dark vs 480 nm; for PI (540 nm): U373, dark vs 540 nm; for IC50: 1-3 as chloride salts;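 for all read-outs here: Resazurin-to-resorufin fluorescence viability readout, 8 h compound exposure then medium change, light dose 3.1 J cm^−2 at 480 nm or 9.5 J cm^−2 at 540 nm, analysed 40 h later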
[9] = tested on: mouse colon carcinoma (CT-26) cells; assay: (Photo-)cytotoxicity on 2D cell monolayers, CT-26; conditions: for PI (480 nm): CT-26, dark vs 480 nm; for PI (540 nm): CT-26, dark vs 540 nm; for IC50: 1-3 as chloride salts
Description: as §1

[10] = read-out: IC50 480 nm (10 min, 3.1 J cm-2), U373, 480 nm
[11] = read-out: IC50 dark, U373, dark
[12] = read-out: IC50 540 nm (40 min, 9.5 J cm-2), CT-26, 540 nm
[13] = read-out: IC50 dark, CT-26, dark

Structure (SMILES) | Φem, luminescence quantum yield [2] | λem, emission maximum [2] | τ air, excited state lifetime (Excited state lifetime) | τ degassed, excited state lifetime (Excited state lifetime) | Singlet oxygen quantum yield, Direct 450 nm CH3CN [3] | Singlet oxygen quantum yield, Indirect 450 nm CH3CN [4] | Singlet oxygen quantum yield, Indirect 450 nm PBS [4] | Singlet oxygen quantum yield, Indirect 540 nm CH3CN [4] | Singlet oxygen quantum yield, Indirect 540 nm PBS [4] | logD (octanol/PBS) [5] | IC50 [6] | IC50 [7] | PI (480 nm) [8] | PI (540 nm) [8] | IC50 [8, 10] | IC50 [8, 11] | PI (480 nm) [9] | PI (540 nm) [9] | IC50 [9, 12] | IC50 [9, 13] | also measured
CN(C)c1ccc(/C=C/c2ccnc(-c3cc(/C=C/c4ccc(N(C)C)cc4)ccn3)c2)cc1.CN(C)c1ccc(/C=C/c2ccnc(-c3cc(/C=C/c4ccc(N(C)C)cc4)ccn3)c2)cc1.CN(C)c1ccc(/C=C/c2ccnc(-c3cc(/C=C/c4ccc(N(C)C)cc4)ccn3)c2)cc1.F[P-](F)(F)(F)(F)F.F[P-](F)(F)(F)(F)F.[Ru+2] [compound 2, [Ru((E,E′)-4,4′-Bis[p-(N,N-dimethylamino)styryl]-2,2′-bipyridine)3][PF6]2] | > 0.1% | 709 nm | 48 ns | 222 ns | 18% | 25% | 3% | 16% | 1% | +2.7 ± 0.4 | 38.4 µM | 42.6 µM | > 2.0 | > 1.6 | 49.1 µM | > 100 µM | > 2.3 | > 1.6 | 62.5 µM | > 100 µM | σ2, 2P absorption cross section [1]: 2175 GM
C(=C\c1ccnc(-c2cc(/C=C/c3ccccc3)ccn2)c1)/c1ccccc1.C(=C\c1ccnc(-c2cc(/C=C/c3ccccc3)ccn2)c1)/c1ccccc1.C(=C\c1ccnc(-c2cc(/C=C/c3ccccc3)ccn2)c1)/c1ccccc1.F[P-](F)(F)(F)(F)F.F[P-](F)(F)(F)(F)F.[Ru+2] [compound 1] | 1.9% | 677 nm | 86 ns | 385 ns | 65% | 66% | 5% | 61% | 3% | +2.6 ± 0.4 | 30.9 µM | 20.3 µM | > 1.9 | > 1.2 | 51.7 µM | > 100 µM | > 4.9 | > 3.0 | 33.4 µM | > 100 µM | σ2, 2P absorption cross section [1]: 147 GM
COc1ccc(/C=C/c2ccnc(-c3cc(/C=C/c4ccc(OC)cc4)ccn3)c2)cc1.F[P-](F)(F)(F)(F)F.F[P-](F)(F)(F)(F)F.[Ru+2].c1ccc(-c2ccccn2)nc1.c1ccc(-c2ccccn2)nc1 [compound 7, [Ru(2,2′-bipyridine)2((E,E′)-4,4′-Bis[p-methoxystyryl]-2,2′-bipyridine)][PF6]2] | 2.8% | 664 nm | 96 ns | 542 ns | 75% | 77% | 11% | 68% | 10% | +0.5 ± 0.2 | 3.1 µM | 0.7 ± 0.4 µM | > 9.5 | > 7.4 | 10.5 µM | > 100 µM | > 143 and > 142.9 | > 111.1 | 0.9 ± 0.3 µM | > 100 µM | Singlet oxygen quantum yield in acetonitrile (range over methods and wavelengths) ([4]; acetonitrile, 450 and 540 nm, direct and indirect): 68–77%; Singlet oxygen quantum yield in aqueous solution (range over wavelengths) ([4]; aqueous solution, 450 and 540 nm): 10–11%
